Data published in US20020162125A1, “Methods and compositions for the modulation of neurogenic inflammatory pain and physical opiate withdrawal” (priority 2001, published 2002).
Where two headings read alike, the source gives them in different places.

Columns and labels:
[1] = tested on: αCGRP −/− and αCGRP +/+ mice; test: Heroin self-administration (lever press operant task); assay type: in vivo
Procedure: Following acquisition of stable heroin self-administration at 15.0 μg/kg/injection dose (3 consecutive sessions <+/−20% variation, >70% active lever responding), mice were allowed to self-administer heroin at each dose during two daily two-hr sessions in a Latin square dose order. After all heroin doses had been tested, saline vehicle was substituted for heroin until responding stabilized for at least 2 consecutive sessions (data points above “saline”).
All procedures involving animals described here were approved by the Service Vétérinaire of the Canton of Vaud, Lausanne, Switzerland. Six individually housed mice of each genotype (CGRP −/− and +/+) were tested during the light phase (12/12; lights on 7:00 am) in daily sessions 5 days/week. Operant chambers housed in sound-attenuating cubicles with a house light and ventilation fan were equipped with cue lights above two retractable levers, a liquid dipper, syringe pump, liquid swivel and counterbalance arm (swivel and counterbalance arms—Instech, Plymouth Meeting, Pa., USA; all other equipment—MedAssociates, Georgia, Vt., USA). A single lever press on the “active” lever raised the dipper into the cage for 10 s and illuminated the cue light above the lever during reinforcer presentation and for a 1-10 s post-reinforcer Time-out (TO) period, depending on the schedule of reinforcement. […]

[2] = tested on: αCGRP −/− and αCGRP +/+ mice; test: Morphine tolerance in the tail-flick assay after repeated injections; assay type: in vivo; conditions: αCGRP −/− vs +/+ mice; repeated ip morphine, day 1-2 50 mg/kg, day 3-4 100 mg/kg
Procedure: Daily injections ip of morphine were performed: day 1 and 2, 50 mg/kg, day 3-4, 100 mg/kg. Analgesia morphine was tested. αCGRP −/− and +/+ mice were analyzed in parallel.

[3] = tested on: αCGRP −/− and αCGRP +/+ mice; conditions: αCGRP −/− mice vs +/+, 30 min after injection
Procedure: The tail flick assay was performed with a tail flick analgesia meter from Columbus Instruments. The cut-off time of the test was 10 seconds.
Morphine or nicotine analgesia were analyzed by using tail flick and hot plate tests. The tests were performed 30 minutes after the injection of drug on αCGRP −/− and +/+ mice.

[4] = tested on: αCGRP −/− and αCGRP +/+ mice; test: Morphine dependence, naloxone-precipitated somatic withdrawal signs
Procedure: Morphine dependence was induced by repeated ip morphine injection for one week: day 1 and 2, 50 mg/kg; day 3 and 4, 100 mg/kg; days 5-7, 100 mg/kg twice/day; day 8, 100 mg/kg in the morning. […] The inventors noted the behavioral withdrawal symptoms (jumping, teeth chattering, tremors, paw tremors, wet dog shakes, ptosis, diarrhea) during 30 minutes after naloxone injection.

[5] = tested on: αCGRP −/− and αCGRP +/+ mice; conditions: αCGRP −/− mice vs +/+; nicotine 0.5 and 2.0 mg/kg sc; data not shown

## CC(=O)Oc1ccc2c3c1O[C@H]1[C@@H](OC(C)=O)C=C[C@H]4[C@@H](C2)N(C)CC[C@@]341 [heroin]
[1]; both genotypes, P<0.05
  intake (injections per session) at 30 μg/kg/injection vs 7.5 and 15.0 μg/kg/injection doses: differed significantly
[1]; αCGRP −/− vs +/+ mice, 3.75-30 μg/kg/injection iv, FR2
  acquisition or maintenance of self-administration: did not differ

## CN1CC[C@]23c4c5ccc(O)c4O[C@H]2[C@@H](O)C=C[C@H]3[C@H]1C5 [morphine]
[2]
  progressive decrease in amplitude of antinociceptive response (tolerance), tail-flick: did not differ
[3]; morphine 1 mg/kg ip
  analgesic response in tail-flick (% MPE): attenuated
[3]; morphine 5 mg/kg ip
  analgesic response in tail-flick (% MPE): to a lesser extent

## C=CCN1CC[C@]23c4c5ccc(O)c4O[C@H]2C(=O)CC[C@@]3(O)[C@H]1C5 [naloxone]
[4]; naloxone 2 mg/kg ip, mutant and wild type, data not shown
  withdrawal signs in saline-treated control mice: did not induce any withdrawal signs
[4]; αCGRP −/− vs +/+ mice made morphine dependent, naloxone 0.1, 0.2 and 2.0 mg/kg ip
  total withdrawal scores: significantly lower
[4]; αCGRP −/− vs +/+ mice made morphine dependent, precipitated by naloxone
  frequency of each somatic sign of morphine withdrawal (e.g. jumping): reduced

## CN1CCCC1c1cccnc1 (stereo not shown) [nicotine]
[5]
  analgesic effects in hot-plate test: significantly increased
[3]; nicotine 0.5 and 2.0 mg/kg sc
  analgesic effects in tail-flick (% MPE): significantly increased
